Measurements published in patent US20250144067A1, “PERSONALIZED STARVATION THERAPY FOR CANCER” (Faeth Therapeutics, Inc., priority 2021, published 2025).
Where a name gives a salt, the structure may show the parent alone. Read-outs that look alike come from different tables or passages of the source. Peptide text beside a SMILES is read from it.

Legend:
[1] = test system: NCI-H292 lung cancer cells; assay: FDA drug screening, complete media vs cholesterol-free media with simvastatin (TABLE 2); type: cell-based, human
[2] = test system: NCI-H292 lung cancer cells; assay: FDA drug screening, complete media vs cholesterol-free media without statin (TABLE 1); type: cell-based, human
[3] = Complete minus Cholesterol-free, […]
[4] = NCI-H292 cells, FDA drug library screen, cholesterol-free media without statin
[5] = NCI-H292 cells, FDA drug library screen, complete media
[6] = NCI-H292 cells, cholesterol-free media with simvastatin 0.04 μM, cell growth value in FDA drug screen
[7] = complete media minus cholesterol-free media + simvastatin, >0 enhanced anti-cancer activity, about 0 neutral, <0 antagonist
[8] = Complete minus Cholesterol-free, >0 enhanced anti-cancer activity, about 0 neutral, <0 antagonist
[9] = NCI-H292 cells, cholesterol-free media without statin, FDA drug library screen
[10] = NCI-H292 cells, complete media, FDA drug library screen
[11] = NCI-H292 cells, drug in cholesterol-free media with simvastatin 0.04 μM
[12] = NCI-H292 cells, drug in complete media
[13] = complete media vs cholesterol-free media + simvastatin (0.04 μM), >0 enhanced anti-cancer activity, about 0 neutral, <0 antagonist
[14] = NCI-H292 cells, FDA drug library screen, cholesterol-free media with simvastatin 0.04 μM
[15] = NCI-H292 cells, cholesterol-free media without statin
[16] = complete vs cholesterol-free media, >0 enhanced anti-cancer activity, about 0 neutral, <0 antagonist
[17] = NCI-H292 cells, complete media, cell growth value in FDA drug screen
[18] = complete vs cholesterol-free media, greater than 0 enhanced anti-cancer activity, about 0 neutral, below 0 antagonists
[19] = Complete minus Cholesterol-free, greater than 0 enhanced anti-cancer activity, about 0 neutral, below 0 antagonist
[20] = Complete minus Cholesterol-free, greater than 0 enhanced anti-cancer activity, about 0 neutral, below 0 antagonists
[21] = NCI-H292 cells in cholesterol-free media without statin
[22] = NCI-H292 cells in complete media
[23] = NCI-H292 cells, FDA library drug in cholesterol-free media with simvastatin 0.04 μM
[24] = NCI-H292 cells, FDA library drug in complete media
[25] = complete media vs cholesterol-free media + simvastatin (0.04 μM), […]

Compound	Difference [1, 7]	Difference [2, 8]	Cholesterol-free [2, 9]	Complete [2, 10]	Cholesterol-free media + simvastatin (0.04 μM) [1, 14]	Complete Media [1, 5]	Cholesterol-free [2, 15]	Complete ([2]; NCI-H292 cells, complete media)	other results
O=C([O-])CCSC[C@H]1O[C@@H]2O[C@H]3[C@H](O)[C@@H](O)[C@@H](O[C@H]4[C@H](O)[C@@H](O)[C@@H](O[C@H]5[C@H](O)[C@@H](O)[C@@H](O[C@H]6[C@H](O)[C@@H](O)[C@@H](O[C@H]7[C@H](O)[C@@H](O)[C@@H](O[C@H]8[C@H](O)[C@@H](O)[C@@H](O[C@H]9[C@H](O)C(O)[C@@H](O[C@H]1[C@H](O)[C@H]2O)O[C@@H]9CSCCC(=O)[O-])O[C@@H]8CSCCC(=O)[O-])O[C@@H]7CSCCC(=O)[O-])O[C@@H]6CSCCC(=O)[O-])O[C@@H]5CSCCC(=O)[O-])O[C@@H]4CSCCC(=O)[O-])O[C@@H]3CSCCC(=O)[O-].[Na+].[Na+].[Na+].[Na+].[Na+].[Na+].[Na+].[Na+] (some centres unmarked) [Sugammadex (sodium)]	–	–	–	–	–	–	–	–	Cholesterol-free media + simvastatin (0.04 μM) ([1]; NCI-H292 cells, cholesterol-free media with simvastatin 0.04 μM, […]): 0.9061; Complete Media ([1]; NCI-H292 cells, complete media, […]): 0.9946; Difference ([1]; complete media minus cholesterol-free media + simvastatin, […]): 0.09; Difference [2, 3]: −0.11; Cholesterol-free [2, 4]: 1.596; Complete [2, 5]: 1.487
Escitalopram (oxalate)	0.04	−0.01	1.284	1.269	–	–	–	–	Cholesterol-free media + simvastatin (0.04 μM) [1, 6]: 0.9976
COC(=O)[C@H](Cc1ccccc1)NC(=O)[C@@H](N)CC(=O)O [Aspartame] (HELM PEPTIDE1{D.F.[CO[*:1]]}$$$$V2.0)	–	−0.06	1.044	0.9887	–	–	–	–	Cholesterol-free media + simvastatin (0.04 μM) [1, 11]: 1.165; Complete Media [1, 12]: 0.9998; Difference [1, 13]: −0.17
CC(=O)N1CCN(c2ccc(OC[C@H]3CO[C@](Cn4ccnc4)(c4ccc(Cl)cc4Cl)O3)cc2)CC1 [(+)-Ketoconazole]	0.48	−0.24	–	–	0.4743	0.9511	1.237	0.9934	–
NC(=O)C(c1ccccc1)(c1ccccc1)[C@@H]1CCN(CCc2ccc3c(c2)CCO3)C1 (racemic) [(±)-Darifenacin]	–	–	1.009	1.18	0.9772	0.8726	–	–	Difference [1, 13]: −0.10; Difference [2, 16]: 0.17
O=C1Nc2ccc(Cl)cc2[C@@](C#CC2CC2)(C(F)(F)F)O1 [Efavirenz]	0.09	–	–	–	–	–	1.108	0.7866	Cholesterol-free media + simvastatin (0.04 μM) [1, 6]: 1.215; Complete Media [1, 17]: 1.301; Difference [2, 18]: −0.32
Cc1cc(=O)oc2cc(O)ccc12 [4-Methylumbelliferone]	–	–	0.6739	1.119	1.129	1.057	–	–	Difference [1, 13]: −0.07; Difference [2, 16]: 0.45
Cisatracurium (besylate)	0.26	–	–	–	1.09	1.349	–	–	Difference [2, 19]: −0.15; Cholesterol-free [2, 4]: 1.321; Complete [2, 5]: 1.173
CN(C)N(C)C(=O)[C@@]1(Cc2ccccc2)CCCN(C(=O)[C@@H](Cc2c[nH]c3ccccc23)NC(=O)C(C)(C)N)C1 [Anamorelin]	0.10	–	–	–	–	–	–	–	Cholesterol-free media + simvastatin (0.04 μM) [1, 6]: 1.263; Complete Media [1, 17]: 1.358; Difference [2, 20]: −0.54; Cholesterol-free [2, 21]: 1.02; Complete [2, 22]: 0.4827
CC1=C(C(=O)O)N2C(=O)[C@@H](NC(=O)[C@H](N)c3ccc(O)cc3)[C@H]2SC1 [Cefadroxil]	0.55	–	1.424	1.685	1.041	1.588	–	–	Difference [2, 16]: 0.26
N=C(N)/N=C(\N)N1CCOCC1 [Moroxydine (hydrochloride)]	–	–	–	–	–	–	1.172	0.8572	Cholesterol-free media + simvastatin (0.04 μM) [1, 11]: 1.02; Complete Media [1, 12]: 0.8563; Difference [1, 13]: −0.16; Difference [2, 18]: −0.32
Pazufloxacin (mesylate)	–	−0.28	–	–	–	–	0.9858	0.7051	Cholesterol-free media + simvastatin (0.04 μM) ([1]; NCI-H292 cells, cholesterol-free media with simvastatin 0.04 μM, FDA drug library screen (TABLE 2)): 0.9357; Complete Media ([1]; NCI-H292 cells, complete media, FDA drug library screen (TABLE 2)): 0.9248; Difference ([1]; complete media minus cholesterol-free media + simvastatin (0.04 μM), >0 enhanced anti-cancer activity, about 0 neutral, <0 antagonist): −0.01
C/C1=C2/[N-][C@H]([C@H](CC(N)=O)[C@@]2(C)CCC(=O)NC[C@@H](C)OP(=O)([O-])O[C@H]2[C@@H](O)[C@@H](n3cnc4cc(C)c(C)cc43)O[C@@H]2CO)[C@]2(C)N=C(/C(C)=C3N=C(/C=C4N=C1[C@@H](CCC(N)=O)C\4(C)C)[C@@H](CCC(N)=O)[C@]\3(C)CC(N)=O)[C@@H](CCC(N)=O)[C@]2(C)CC(N)=O.[CH3-].[Co+3] [Methylcobalamin]	–	–	–	–	–	–	–	–	Cholesterol-free media + simvastatin (0.04 μM) [1, 23]: 1.749; Complete Media [1, 24]: 0.8589; Difference [1, 25]: −0.89; Difference [2, 3]: −0.18; Cholesterol-free [2, 4]: 1.021; Complete [2, 5]: 0.8435
CC(=O)OCC1=C(C(=O)O)N2C(=O)[C@@H](NC(=O)CSC(=NC(C)C)NC(C)C)[C@H]2SC1 [Cefathiamidine]	–	–	–	–	0.9136	0.833	1.276	0.9789	Difference [1, 25]: −0.08; Difference [2, 3]: −0.30
C[C@]12CC[C@@H]3c4ccc(OS(=O)(=O)O)cc4CC[C@H]3[C@@H]1CCC2=O [Estropipate]	0.15	–	–	–	0.9313	1.077	–	–	Difference [2, 20]: −0.48; Cholesterol-free [2, 21]: 1.475; Complete [2, 22]: 0.9927
CC(C)(CCCCCC(O)CCCCCC(C)(C)C(=O)O)C(=O)O [Bempedoic acid]	0.14	−0.25	–	–	1.143	1.281	1.343	1.094	–
CC(=O)c1ccc(O)c(C(=O)O)c1 [5-Acetylsalicylic acid]	–	–	0.912	1.045	–	–	–	–	Cholesterol-free media + simvastatin (0.04 μM) [1, 23]: 1.188; Complete Media [1, 24]: 0.8198; Difference [1, 13]: −0.37; Difference [2, 16]: 0.13
COc1c(N2CCNC(C)C2)c(F)cc2c(=O)c(C(=O)O)cn(C3CC3)c12 (centres unmarked) [Gatifloxacin]	0.08	–	1.137	1.266	–	–	–	–	Cholesterol-free media + simvastatin (0.04 μM) [1, 6]: 0.9418; Complete Media [1, 17]: 1.02; Difference [2, 16]: 0.13
CC(C)(N)CNC(=O)C[C@H]1CC[C@]2(CC1)OO[C@]1(O2)C2CC3CC(C2)CC1C3 [Arterolane]	0.19	–	–	–	1.129	1.314	–	–	Difference [2, 19]: −0.17; Cholesterol-free [2, 4]: 1.167; Complete [2, 5]: 0.9934
Brompheniramine (maleate)	0.30	–	–	–	0.8932	1.189	–	–	Difference [2, 20]: −0.54; Cholesterol-free [2, 21]: 1.443; Complete [2, 22]: 0.9065
NCCCCCC(=O)O [6-Aminocaproic acid]	–	–	–	–	–	–	–	–	Cholesterol-free media + simvastatin (0.04 μM) [1]: 1.226; Complete Media [1]: 1.745; Difference [1]: 0.52; Cholesterol-free [2]: 1.11; Complete [2]: 1.715; Difference [2]: 0.60
C[C@H](CCC(=O)NCCS(=O)(=O)[O-])[C@H]1CC[C@H]2[C@@H]3[C@@H](O)C[C@@H]4C[C@H](O)CC[C@]4(C)[C@H]3CC[C@]12C.[Na+] [Taurochenodeoxycholic acid (sodium salt)]	–	–	–	–	–	–	0.9501	0.7299	Cholesterol-free media + simvastatin (0.04 μM) [1, 23]: 1.88; Complete Media [1, 24]: 1.535; Difference [1, 25]: −0.35; Difference [2, 3]: −0.22
CCCCCCCC/C=C\CCCCCCCC(=O)O [Oleic acid]	0.10	−0.25	–	–	–	–	1.214	0.9643	Cholesterol-free media + simvastatin (0.04 μM) [1, 6]: 0.7267; Complete Media [1, 17]: 0.8301
CC1(C)CC[C@]2(C(=O)O)CC[C@]3(C)C(=CC[C@@H]4[C@@]5(C)CC[C@H](O)C(C)(C)[C@@H]5CC[C@]43C)[C@@H]2C1 [Oleanolic Acid]	0.66	−0.19	–	–	1.063	1.721	1.001	0.8111	–
Metoprolol (Succinate)	–	0.02	0.9592	0.9837	–	–	–	–	Cholesterol-free media + simvastatin (0.04 μM) [1, 11]: 1.072; Complete Media [1, 12]: 0.8786; Difference [1, 13]: −0.19
